Assay results reported in ChEMBL document CHEMBL1145395, “De novo design of selective antibiotic peptides by incorporation of unnatural amino acids” (J Med Chem, 2007).
Converted amounts (≈) assume the structure as drawn. Starred links: 1 amine or outer side, 2 acyl side, 3 side chain; linkers in the order of their positions; H or OH if unused. Non-standard residues stand in square brackets, D forms with d. Residues, ends and D or L forms follow the SMILES beside them. ξ: configuration not given here. Pro(3ξ,4ξ-(CH2)4) = O=C(O)[C@H]1NCC2CCCCC21; Oic = O=C(O)[C@@H]1C[C@@H]2CCCC[C@@H]2N1; Phe(4-F) = N[C@@H](Cc1ccc(F)cc1)C(=O)O; Ethylenediamine = C(CN[*:2])N[*:1]; Tic = O=C(O)[C@@H]1Cc2ccccc2CN1; GABA = NCCCC(=O)O

What was measured:
[1] = tested on: Salmonella typhimurium; assay: Antibacterial activity against Salmonella Typhimurium ATCC 13311; format: functional, Salmonella enterica subsp. enterica serovar Typhimurium; settings: Salmonella enterica
[2] = tested on: Staphylococcus aureus; assay: Antibacterial activity against methicillin/gentamicin/tetracycline resistant Staphylococcus aureus ATCC 33592; format: functional
[3] = tested on: Mycobacterium; assay: Antibacterial activity against Mycobacterium ranae ATCC 110; format: functional
[4] = tested on: Bacillus subtilis; assay: Antibacterial activity against Bacillus subtilis ATCC 43223; format: functional

SMILES | MIC [1] | MIC [2] | MIC [3] | MIC [4]
CC(=O)NCCCC(=O)N[C@@H](Cc1ccccc1)C(=O)N1Cc2ccccc2C[C@H]1C(=O)N1[C@H](C(=O)NCCCC(=O)N[C@@H](CCCCN)C(=O)N2Cc3ccccc3C[C@H]2C(=O)N2[C@H](C(=O)NCCCC(=O)N[C@@H](Cc3ccccc3)C(=O)N3Cc4ccccc4C[C@H]3C(=O)N3[C@H](C(=O)NCCCC(=O)N[C@@H](CCCCN)C(=O)N4Cc5ccccc5C[C@H]4C(=O)N[C@@H](CCCCN)C(=O)N[C@@H](CCCCN)C(=O)N[C@@H](CCCCN)C(=O)N[C@@H](CCCCN)C(=O)N[C@@H](CCCCN)C(N)=O)C[C@@H]4CCCC[C@@H]43)C[C@@H]3CCCC[C@@H]32)C[C@@H]2CCCC[C@@H]21 (Ac-[GABA]F[Tic][Oic][GABA]K[Tic][Oic][GABA]F[Tic][Oic][GABA]K[Tic]KKKKK-NH2) | 10 µM (≈ 26.8 µg/mL) | 30 µM (≈ 80.4 µg/mL) | 3 µM (≈ 8.04 µg/mL) | 1 µM (≈ 2.68 µg/mL)
CC(=O)NCC(=O)N[C@@H](Cc1ccccc1)C(=O)N[C@@H](Cc1ccccc1)C(=O)N1CC2CCCCC2[C@H]1C(=O)NCC(=O)N[C@@H](CCCCN)C(=O)N[C@@H](Cc1ccccc1)C(=O)N1CC2CCCCC2[C@H]1C(=O)NCC(=O)N[C@@H](Cc1ccccc1)C(=O)N[C@@H](Cc1ccccc1)C(=O)N1CC2CCCCC2[C@H]1C(=O)NCC(=O)N[C@@H](CCCCN)C(=O)N[C@@H](Cc1ccccc1)C(=O)N[C@@H](CCCCN)C(=O)N[C@@H](CCCCN)C(=O)N[C@@H](CCCCN)C(=O)N[C@@H](CCCCN)C(N)=O (stereo not given in full) (Ac-GFF[Pro(3ξ,4ξ-(CH2)4)]GKF[Pro(3ξ,4ξ-(CH2)4)]GFF[Pro(3ξ,4ξ-(CH2)4)]GKFKKKK-NH2) | 10 µM (≈ 23.9 µg/mL) | 10 µM (≈ 23.9 µg/mL) | 10 µM (≈ 23.9 µg/mL) | 3 µM (≈ 7.18 µg/mL)
CC(=O)NCC(=O)N[C@@H](Cc1ccccc1)C(=O)N1Cc2ccccc2C[C@H]1C(=O)N1[C@H](C(=O)NCC(=O)N[C@@H](CCCCN)C(=O)N2Cc3ccccc3C[C@H]2C(=O)N2[C@H](C(=O)NCC(=O)N[C@@H](Cc3ccccc3)C(=O)N3Cc4ccccc4C[C@H]3C(=O)N3[C@H](C(=O)NCC(=O)N[C@@H](CCCCN)C(=O)N4Cc5ccccc5C[C@H]4C(=O)N[C@@H](CCCCN)C(=O)N[C@@H](CCCCN)C(=O)N[C@@H](CCCCN)C(=O)N[C@@H](CCCCN)C(=O)NCCN)C[C@@H]4CCCC[C@@H]43)C[C@@H]3CCCC[C@@H]32)C[C@@H]2CCCC[C@@H]21 (Ac-GF[Tic][Oic]GK[Tic][Oic]GF[Tic][Oic]GK[Tic]KKKK-Ethylenediamine) | 10 µM (≈ 24.8 µg/mL) | 3 µM (≈ 7.45 µg/mL) | 10 µM (≈ 24.8 µg/mL) | 1 µM (≈ 2.48 µg/mL)
CC(=O)NCC(=O)N[C@@H](Cc1ccc(F)cc1)C(=O)N1Cc2ccccc2C[C@H]1C(=O)N1CC2CCCCC2[C@H]1C(=O)NCC(=O)N[C@@H](CCCCN)C(=O)N1Cc2ccccc2C[C@H]1C(=O)N1CC2CCCCC2[C@H]1C(=O)NCC(=O)N[C@@H](Cc1ccc(F)cc1)C(=O)N1Cc2ccccc2C[C@H]1C(=O)N1CC2CCCCC2[C@H]1C(=O)NCC(=O)N[C@@H](CCCCN)C(=O)N1Cc2ccccc2C[C@H]1C(=O)N[C@@H](CCCCN)C(=O)N[C@@H](CCCCN)C(=O)N[C@@H](CCCCN)C(=O)N[C@@H](CCCCN)C(N)=O (stereo not given in full) (Ac-G[Phe(4-F)][Tic][Pro(3ξ,4ξ-(CH2)4)]GK[Tic][Pro(3ξ,4ξ-(CH2)4)]G[Phe(4-F)][Tic][Pro(3ξ,4ξ-(CH2)4)]GK[Tic]KKKK-NH2) | 30 µM (≈ 74.3 µg/mL) | 10 µM (≈ 24.8 µg/mL) | 3 µM (≈ 7.43 µg/mL) | 0.3 µM (≈ 0.743 µg/mL)
CC(=O)NCC(=O)N[C@@H](Cc1ccccc1)C(=O)N1Cc2ccccc2C[C@H]1C(=O)N1CC2CCCCC2[C@H]1C(=O)NCC(=O)N[C@@H](CCCCN)C(=O)N1Cc2ccccc2C[C@H]1C(=O)N1CC2CCCCC2[C@H]1C(=O)NCC(=O)N[C@@H](Cc1ccccc1)C(=O)N1Cc2ccccc2C[C@H]1C(=O)N1CC2CCCCC2[C@H]1C(=O)NCC(=O)N[C@@H](CCCCN)C(=O)N1Cc2ccccc2C[C@H]1C(=O)N[C@@H](CCCCN)C(=O)N[C@@H](CCCCN)C(=O)N[C@@H](CCCCN)C(=O)N[C@@H](CCCCN)C(=O)N[C@@H](CCCCN)C(N)=O (stereo not given in full) (Ac-GF[Tic][Pro(3ξ,4ξ-(CH2)4)]GK[Tic][Pro(3ξ,4ξ-(CH2)4)]GF[Tic][Pro(3ξ,4ξ-(CH2)4)]GK[Tic]KKKKK-NH2) | 10 µM (≈ 25.7 µg/mL) | 3 µM (≈ 7.71 µg/mL) | 3 µM (≈ 7.71 µg/mL) | 1 µM (≈ 2.57 µg/mL)
